Test results: US7868031B2, “Propionamide compounds as antiinflammatory agents” (Roche Palo Alto LLC, priority 2005, dated 2011)

Molecular target: T1, Human recombinant purified glucocorticoid receptor (Homo sapiens, UniProt P04150)
T1 sequence (P04150 1-777): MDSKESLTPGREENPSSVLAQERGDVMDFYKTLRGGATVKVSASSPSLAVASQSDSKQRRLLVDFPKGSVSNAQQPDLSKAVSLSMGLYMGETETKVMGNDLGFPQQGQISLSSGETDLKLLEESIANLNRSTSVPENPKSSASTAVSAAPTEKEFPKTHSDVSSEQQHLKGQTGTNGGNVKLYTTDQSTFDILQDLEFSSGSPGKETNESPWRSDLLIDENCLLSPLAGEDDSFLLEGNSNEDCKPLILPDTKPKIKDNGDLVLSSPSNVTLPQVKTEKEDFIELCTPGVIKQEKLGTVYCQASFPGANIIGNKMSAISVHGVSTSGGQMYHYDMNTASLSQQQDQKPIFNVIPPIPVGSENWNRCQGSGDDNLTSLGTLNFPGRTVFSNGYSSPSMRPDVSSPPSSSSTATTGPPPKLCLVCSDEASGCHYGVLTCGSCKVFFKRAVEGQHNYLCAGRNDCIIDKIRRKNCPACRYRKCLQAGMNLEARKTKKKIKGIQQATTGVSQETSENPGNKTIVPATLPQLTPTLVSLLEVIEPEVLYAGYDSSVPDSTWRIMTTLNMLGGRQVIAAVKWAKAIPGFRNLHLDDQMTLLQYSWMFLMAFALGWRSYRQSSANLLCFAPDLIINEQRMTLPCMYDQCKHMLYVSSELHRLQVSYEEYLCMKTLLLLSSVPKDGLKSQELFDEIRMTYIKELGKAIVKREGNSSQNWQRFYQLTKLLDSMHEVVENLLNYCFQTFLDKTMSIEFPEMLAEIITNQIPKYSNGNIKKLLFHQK
Assay: Glucocorticoid receptor competitive binding assay (3H-dexamethasone)
Settings: competition with 2 nM 3H-dexamethasone; GR at 1 nM; 4° C. overnight; read-out: Binding Affinity Ki
Procedure: The affinity of glucocorticoid receptor antagonists for the glucocorticoid receptor was determined in competitive binding assays by the ability of the antagonist to compete with tritiated dexamethasone. All assay steps were performed on ice in 96-well plates. Binding buffer contained 10 mM potassium phosphate pH 7.4, 20 mM Na2Mo4, 100 μM EDTA, 2% DMSO, and 5 mM DTT. Human recombinant purified glucocorticoid receptor was used at 1 nM. Compounds tested had up to 2% DMSO final concentration. Non-specific binding condition was 1 μM dexamethasone. The radioligand used for the competition assay was 2 nM ^3H-dexamethasone (83 Ci/mmol stock solution). Buffer, compounds or vehicles, GR, and radioligand were incubated at 4° C. overnight. Unifilter GF/B 96-well filter plates were treated with 0.5% PEI after incubation. Samples were transferred to filter plates by a cell harvester.
Filter plates were washed five times with 50 mM Tris pH 7.5 and 5 mM EDTA wash buffer. Samples were dried at 65° C. for about 1 hr. Scintillation fluid was added to filter plates at 50 μL/well and ^3H cpm were measured on a TopCount scintillation counter.

Row | Compound | Ki [nM]
1 | O=C(Nc1ccc(-c2ncco2)cc1)C(O)(CC1(c2ccccc2C(F)(F)F)CCC1)C(F)(F)F (stereo not shown) [Example 1, 3,3,3-Trifluoro-2-hydroxy-N-(4-oxazol-2-yl-phenyl)-2-[1-(2-trifluoromethyl-phenyl)-cyclobutylmethyl]-propionamide] | 161
2 | CCOC(=O)C(O)c1ccc(NC(=O)C(O)(CC2(c3ccccc3C(F)(F)F)CCC2)C(F)(F)F)cc1 (stereo not shown) [Example 4, Hydroxy-(4-{3,3,3-trifluoro-2-hydroxy-2-[1-(2-trifluoromethyl-phenyl)-cyclobutylmethyl]-propionylamino}-phenyl)-acetic acid ethyl ester] | 555
3 | O=C(Nc1cccc(-c2cnco2)c1)C(O)(CC1(c2ccccc2C(F)(F)F)CCC1)C(F)(F)F (stereo not shown) [Example 2, 3,3,3-Trifluoro-2-hydroxy-N-(3-oxazol-5-yl-phenyl)-2-[1-(2-trifluoromethyl-phenyl)-cyclobutylmethyl]-propionamide] | 13.5
4 | Cc1noc(-c2ccc(NC(=O)C(O)(CC3(c4ccccc4C(F)(F)F)CCC3)C(F)(F)F)cc2)n1 (stereo not shown) [Example 3, 3,3,3-Trifluoro-2-hydroxy-N-[4-(3-methyl-[1,2,4]oxadiazol-5-yl-)-phenyl]-2-[1-(2-trifluoromethyl-phenyl)-cyclobutylmethyl]-propionamide] | 25.2
